These results are taken from patent publication US9994576B2, “Substituted pyrazolo[3,4-d]pyrimidines as kinase inhibitors” (PRINCIPIA BIOPHARMA INC., priority 2012, dated 2018).

The target of this experiment is protein target (Homo sapiens (Human), UniProt Q06187). Nature of the experiment: Reversibility of binding (compound in solution before/after denaturation or digestion of target, HPLC-MS/MS). The note with it: native (folded) target in excess over compound. On the procedure: The following approach was developed to differentiate compounds that form irreversible covalent bond with their targets, such as non-cyano containing acrylamide compounds, from compound that form reversible covalent bond i.e., compounds and/or pharmaceutically acceptable salts of the present disclosure. […] The reactions were then treated with perturbations including both denaturation with 5 M guanidine hydrochloride and digestion with trypsin, disrupting proper folding of the target. […] The concentration of compound in solution was assessed both preceding and following perturbation using high performance liquid chromatography (HPLC) coupled to tandem mass spectrometry.
protein target, sequence (Q06187 whole entry): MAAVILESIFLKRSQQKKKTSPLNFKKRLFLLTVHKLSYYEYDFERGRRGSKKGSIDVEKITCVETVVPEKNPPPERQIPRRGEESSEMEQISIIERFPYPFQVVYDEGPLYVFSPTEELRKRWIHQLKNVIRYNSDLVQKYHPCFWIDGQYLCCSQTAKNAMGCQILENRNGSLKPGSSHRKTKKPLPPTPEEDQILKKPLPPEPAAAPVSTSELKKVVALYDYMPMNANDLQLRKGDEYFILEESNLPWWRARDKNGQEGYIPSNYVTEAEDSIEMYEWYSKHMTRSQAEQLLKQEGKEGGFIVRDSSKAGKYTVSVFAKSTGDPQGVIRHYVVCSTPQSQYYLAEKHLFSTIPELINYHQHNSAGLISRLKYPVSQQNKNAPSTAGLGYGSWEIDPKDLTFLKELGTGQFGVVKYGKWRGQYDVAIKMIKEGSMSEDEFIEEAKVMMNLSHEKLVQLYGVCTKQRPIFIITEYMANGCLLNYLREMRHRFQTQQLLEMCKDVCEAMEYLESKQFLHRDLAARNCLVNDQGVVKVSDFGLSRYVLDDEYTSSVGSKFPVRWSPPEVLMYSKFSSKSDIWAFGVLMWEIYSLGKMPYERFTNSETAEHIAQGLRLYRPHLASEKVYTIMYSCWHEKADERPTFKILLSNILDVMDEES

In the case of `CN(C1COC1)C(C)(C)C=C(C#N)C(=O)N1CCC[C@H]1Cn1nc(-c2ccc(Oc3ccccc3)cc2F)c2c(N)ncnc21` [Example 10, 2-[(2S)-2-[[4-amino-3-(2-fluoro-4-phenoxy-phenyl)pyrazolo[3,4-d]pyrimidin-1-yl]methyl]pyrrolidine-1-carbonyl]-4-methyl-4-[methyl(oxetan-3-yl)amino]pent-2-enenitrile], the “Compound in solution in the native state?” value was “no”.
